Reference: ChEMBL document CHEMBL5649166, “RIP3 induces apoptosis independent of pronecrotic kinase activity” (Mol Cell, 2014)

Assays:
[1] = molecular target: Tyrosine-protein kinase Fgr (Homo sapiens) (UniProt P09769); test: Inhibition of human FGR using poly[Glu:Tyr] (4:1) as substrate at 1 uM in presence of 32P-ATP by Hotspot assay relative to control; values are per cent of control
[2] = molecular target: Dual specificity protein kinase CLK3 (Homo sapiens) (UniProt P49761); test: Residual activity of human CLK3 using myelin basic protein as substrate at 1 uM in presence of 32P-ATP by Hotspot assay relative to control
Chain of Dual specificity protein kinase CLK3 (Homo sapiens) (P49761 whole entry, looked up): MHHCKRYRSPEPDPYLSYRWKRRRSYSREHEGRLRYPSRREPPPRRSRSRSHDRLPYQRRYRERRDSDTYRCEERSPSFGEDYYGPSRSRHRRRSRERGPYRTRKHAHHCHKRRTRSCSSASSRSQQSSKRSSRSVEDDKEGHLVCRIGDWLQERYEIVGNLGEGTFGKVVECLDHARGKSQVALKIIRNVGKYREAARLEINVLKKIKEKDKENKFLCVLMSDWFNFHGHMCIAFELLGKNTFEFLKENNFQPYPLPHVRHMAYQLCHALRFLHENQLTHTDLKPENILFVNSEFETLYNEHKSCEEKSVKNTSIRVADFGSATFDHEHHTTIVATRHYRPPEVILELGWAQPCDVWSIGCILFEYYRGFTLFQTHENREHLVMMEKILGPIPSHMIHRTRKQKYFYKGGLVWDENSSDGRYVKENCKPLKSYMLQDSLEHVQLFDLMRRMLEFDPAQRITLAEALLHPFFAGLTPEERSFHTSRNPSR

[3] = molecular target: T1, MAP/microtubule affinity-regulating kinase 4 (Homo sapiens) (UniProt Q96L34); test: Inhibition of human MARK4 using KKKVSRSGLYRSPSMPENLNRPR as substrate at 1 uM in presence of 32P-ATP by Hotspot assay relative to control; values are per cent of control
T1 sequence (whole entry): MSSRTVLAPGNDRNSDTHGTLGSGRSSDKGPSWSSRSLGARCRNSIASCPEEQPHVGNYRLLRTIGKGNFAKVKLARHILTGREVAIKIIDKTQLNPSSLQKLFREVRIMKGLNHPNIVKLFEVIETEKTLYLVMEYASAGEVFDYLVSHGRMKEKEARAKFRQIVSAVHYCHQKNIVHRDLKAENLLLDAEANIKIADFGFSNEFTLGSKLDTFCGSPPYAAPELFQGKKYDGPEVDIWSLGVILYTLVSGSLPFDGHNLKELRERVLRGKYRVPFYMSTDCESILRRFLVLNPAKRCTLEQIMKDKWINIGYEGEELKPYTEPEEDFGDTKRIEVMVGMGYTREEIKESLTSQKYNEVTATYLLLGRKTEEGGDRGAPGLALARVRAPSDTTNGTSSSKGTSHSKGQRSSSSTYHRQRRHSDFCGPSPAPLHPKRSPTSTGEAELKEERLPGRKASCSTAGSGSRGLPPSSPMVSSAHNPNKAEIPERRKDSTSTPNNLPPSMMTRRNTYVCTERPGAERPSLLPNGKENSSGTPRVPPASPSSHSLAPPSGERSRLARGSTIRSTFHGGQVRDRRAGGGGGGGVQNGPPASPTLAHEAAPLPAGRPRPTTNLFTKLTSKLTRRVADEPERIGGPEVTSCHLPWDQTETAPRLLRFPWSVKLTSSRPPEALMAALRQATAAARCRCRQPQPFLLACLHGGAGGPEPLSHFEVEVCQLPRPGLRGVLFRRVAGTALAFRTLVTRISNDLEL

[4] = molecular target: Serine/threonine-protein kinase N2 (Homo sapiens) (UniProt Q16513); test: Inhibition of human PKN2/PRK2 using KKLNRTLSVA as substrate at 1 uM in presence of 32P-ATP by Hotspot assay relative to control; values are per cent of control
Chain of Serine/threonine-protein kinase N2 (Homo sapiens) (Q16513 whole entry, looked up): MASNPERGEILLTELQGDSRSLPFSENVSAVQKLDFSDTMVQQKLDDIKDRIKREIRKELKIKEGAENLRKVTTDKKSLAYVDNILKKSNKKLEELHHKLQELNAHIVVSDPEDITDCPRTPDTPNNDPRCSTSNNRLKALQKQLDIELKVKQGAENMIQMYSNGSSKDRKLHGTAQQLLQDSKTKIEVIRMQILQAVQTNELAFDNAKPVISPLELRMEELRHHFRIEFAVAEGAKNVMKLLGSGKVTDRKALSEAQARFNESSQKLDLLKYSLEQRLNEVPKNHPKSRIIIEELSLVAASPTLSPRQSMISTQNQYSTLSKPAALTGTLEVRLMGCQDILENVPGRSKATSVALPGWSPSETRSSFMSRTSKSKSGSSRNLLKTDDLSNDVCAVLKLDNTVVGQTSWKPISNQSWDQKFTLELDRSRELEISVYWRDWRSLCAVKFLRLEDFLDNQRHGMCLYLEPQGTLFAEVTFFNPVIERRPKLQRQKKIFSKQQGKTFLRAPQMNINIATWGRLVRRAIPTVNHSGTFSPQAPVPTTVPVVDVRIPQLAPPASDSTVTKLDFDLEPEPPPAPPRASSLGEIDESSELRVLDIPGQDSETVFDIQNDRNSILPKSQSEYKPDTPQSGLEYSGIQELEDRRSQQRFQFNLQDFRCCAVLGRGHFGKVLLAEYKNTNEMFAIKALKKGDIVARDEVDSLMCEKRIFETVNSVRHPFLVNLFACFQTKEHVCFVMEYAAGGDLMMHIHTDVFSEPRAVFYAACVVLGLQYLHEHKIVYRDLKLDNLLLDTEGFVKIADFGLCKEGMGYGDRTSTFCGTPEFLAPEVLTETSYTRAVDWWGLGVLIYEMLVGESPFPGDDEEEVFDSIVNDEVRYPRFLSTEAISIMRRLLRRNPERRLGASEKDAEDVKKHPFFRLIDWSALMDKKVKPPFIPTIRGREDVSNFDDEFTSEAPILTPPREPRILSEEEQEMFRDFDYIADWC

[5] = molecular target: Calcium/calmodulin-dependent protein kinase type II subunit delta (Homo sapiens) (UniProt Q13557); test: Inhibition of human CAMK2d using KKLNRTLSFAEPG as substrate at 1 uM in presence of 32P-ATP by Hotspot assay relative to control; values are per cent of control
Chain of Calcium/calmodulin-dependent protein kinase type II subunit delta (Homo sapiens) (Q13557 whole entry): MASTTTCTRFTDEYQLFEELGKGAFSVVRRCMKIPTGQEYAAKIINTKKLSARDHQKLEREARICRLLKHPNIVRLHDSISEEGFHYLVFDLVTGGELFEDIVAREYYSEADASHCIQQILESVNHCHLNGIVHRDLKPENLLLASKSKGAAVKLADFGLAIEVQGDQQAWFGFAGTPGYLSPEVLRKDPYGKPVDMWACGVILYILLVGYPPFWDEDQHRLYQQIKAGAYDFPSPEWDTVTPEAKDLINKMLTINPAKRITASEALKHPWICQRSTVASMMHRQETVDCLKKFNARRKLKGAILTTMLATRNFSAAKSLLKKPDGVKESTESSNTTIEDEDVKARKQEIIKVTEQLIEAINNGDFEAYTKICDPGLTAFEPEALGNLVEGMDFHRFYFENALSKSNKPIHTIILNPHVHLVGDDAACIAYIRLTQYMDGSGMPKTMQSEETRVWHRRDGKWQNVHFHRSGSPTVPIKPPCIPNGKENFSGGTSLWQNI

[6] = molecular target: T2, Inhibitor of nuclear factor kappa-B kinase subunit alpha (Homo sapiens) (UniProt O15111); test: Inhibition of human IKKa/CHUK using KKKKERLLDDRHDSGLDSMKDEE as substrate at 1 uM in presence of 32P-ATP by Hotspot assay relative to control; values are per cent of control
T2 sequence (whole entry): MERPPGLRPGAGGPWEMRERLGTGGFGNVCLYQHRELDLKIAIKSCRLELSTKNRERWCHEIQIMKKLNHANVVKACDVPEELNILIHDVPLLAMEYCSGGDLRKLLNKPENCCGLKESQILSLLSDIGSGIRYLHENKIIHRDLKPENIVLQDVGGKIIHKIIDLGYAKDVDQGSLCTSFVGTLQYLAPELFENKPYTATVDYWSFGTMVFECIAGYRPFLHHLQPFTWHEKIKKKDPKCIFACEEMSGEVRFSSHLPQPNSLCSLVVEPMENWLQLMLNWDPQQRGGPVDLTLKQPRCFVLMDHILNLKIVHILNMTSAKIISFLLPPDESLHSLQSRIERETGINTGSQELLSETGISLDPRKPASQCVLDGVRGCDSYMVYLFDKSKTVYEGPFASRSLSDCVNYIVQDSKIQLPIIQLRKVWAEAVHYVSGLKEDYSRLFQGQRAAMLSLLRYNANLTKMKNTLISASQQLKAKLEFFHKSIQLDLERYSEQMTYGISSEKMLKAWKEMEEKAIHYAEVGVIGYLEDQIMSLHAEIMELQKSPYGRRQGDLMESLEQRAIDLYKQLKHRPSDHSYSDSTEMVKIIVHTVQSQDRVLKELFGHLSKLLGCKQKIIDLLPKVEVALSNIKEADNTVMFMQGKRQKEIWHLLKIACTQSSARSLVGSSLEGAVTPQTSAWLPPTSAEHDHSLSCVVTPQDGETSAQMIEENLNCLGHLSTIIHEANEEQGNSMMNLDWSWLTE

[7] = molecular target: Tyrosine-protein kinase JAK2 (Homo sapiens) (UniProt O60674); test: Inhibition of human JAK2 using poly[Glu:Tyr] (4:1) as substrate at 1 uM in presence of 32P-ATP by Hotspot assay relative to control; values are per cent of control
Chain of Tyrosine-protein kinase JAK2 (Homo sapiens) (O60674 whole entry): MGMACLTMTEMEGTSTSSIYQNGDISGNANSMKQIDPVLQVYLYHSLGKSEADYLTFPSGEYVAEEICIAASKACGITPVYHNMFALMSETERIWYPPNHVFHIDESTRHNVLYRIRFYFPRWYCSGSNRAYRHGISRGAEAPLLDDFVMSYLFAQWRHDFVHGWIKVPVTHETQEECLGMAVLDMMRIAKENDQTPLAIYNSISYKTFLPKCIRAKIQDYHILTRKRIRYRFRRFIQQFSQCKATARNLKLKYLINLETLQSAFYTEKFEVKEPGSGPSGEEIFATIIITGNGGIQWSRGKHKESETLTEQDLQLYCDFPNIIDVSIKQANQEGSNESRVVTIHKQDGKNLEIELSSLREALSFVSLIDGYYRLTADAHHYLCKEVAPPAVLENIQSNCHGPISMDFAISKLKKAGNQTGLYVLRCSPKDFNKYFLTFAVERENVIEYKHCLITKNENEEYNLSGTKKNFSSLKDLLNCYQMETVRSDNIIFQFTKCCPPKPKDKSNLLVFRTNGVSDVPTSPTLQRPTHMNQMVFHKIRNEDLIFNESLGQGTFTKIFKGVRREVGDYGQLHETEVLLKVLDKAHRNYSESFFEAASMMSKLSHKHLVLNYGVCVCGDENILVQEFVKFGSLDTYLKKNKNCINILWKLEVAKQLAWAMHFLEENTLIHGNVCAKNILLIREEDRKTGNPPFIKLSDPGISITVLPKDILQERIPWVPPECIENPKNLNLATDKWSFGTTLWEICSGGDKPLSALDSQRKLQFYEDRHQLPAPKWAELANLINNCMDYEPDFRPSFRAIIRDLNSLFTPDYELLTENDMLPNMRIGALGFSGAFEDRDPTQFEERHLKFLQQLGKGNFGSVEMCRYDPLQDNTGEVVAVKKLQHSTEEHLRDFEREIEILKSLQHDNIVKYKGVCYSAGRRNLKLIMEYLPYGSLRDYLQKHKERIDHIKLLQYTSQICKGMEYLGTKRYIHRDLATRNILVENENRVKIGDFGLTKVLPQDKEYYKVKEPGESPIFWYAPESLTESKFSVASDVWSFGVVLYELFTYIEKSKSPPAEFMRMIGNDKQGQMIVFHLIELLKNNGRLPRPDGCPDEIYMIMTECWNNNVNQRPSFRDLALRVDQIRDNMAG

[8] = molecular target: MAP/microtubule affinity-regulating kinase 3 (Homo sapiens) (UniProt P27448); test: Inhibition of human MARK3 using KKKVSRSGLYRSPSMPENLNRPR as substrate at 1 uM in presence of 32P-ATP by Hotspot assay relative to control; values are per cent of control
Chain of MAP/microtubule affinity-regulating kinase 3 (Homo sapiens) (P27448 whole entry, looked up): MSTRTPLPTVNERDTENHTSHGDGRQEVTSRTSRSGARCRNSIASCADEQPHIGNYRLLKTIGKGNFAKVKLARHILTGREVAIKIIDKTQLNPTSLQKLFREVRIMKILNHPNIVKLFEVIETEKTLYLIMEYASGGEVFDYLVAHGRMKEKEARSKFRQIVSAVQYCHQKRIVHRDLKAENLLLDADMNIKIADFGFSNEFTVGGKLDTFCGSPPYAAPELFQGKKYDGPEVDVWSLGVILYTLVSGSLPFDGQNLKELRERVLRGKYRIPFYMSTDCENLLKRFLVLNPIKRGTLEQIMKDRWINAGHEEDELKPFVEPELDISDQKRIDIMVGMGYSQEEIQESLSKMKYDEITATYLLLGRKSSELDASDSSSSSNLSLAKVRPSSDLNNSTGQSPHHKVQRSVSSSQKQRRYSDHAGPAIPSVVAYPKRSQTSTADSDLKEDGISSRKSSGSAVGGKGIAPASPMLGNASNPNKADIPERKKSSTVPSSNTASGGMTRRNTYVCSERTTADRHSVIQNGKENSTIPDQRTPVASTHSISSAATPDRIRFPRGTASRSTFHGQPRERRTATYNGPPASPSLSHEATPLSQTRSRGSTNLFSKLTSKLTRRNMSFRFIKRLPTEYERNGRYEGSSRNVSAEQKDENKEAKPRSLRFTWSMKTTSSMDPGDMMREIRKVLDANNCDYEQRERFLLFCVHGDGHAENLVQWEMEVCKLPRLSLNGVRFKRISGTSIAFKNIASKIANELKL

Chain of Tyrosine-protein kinase Fgr (Homo sapiens) (P09769 2-529 limits assumed): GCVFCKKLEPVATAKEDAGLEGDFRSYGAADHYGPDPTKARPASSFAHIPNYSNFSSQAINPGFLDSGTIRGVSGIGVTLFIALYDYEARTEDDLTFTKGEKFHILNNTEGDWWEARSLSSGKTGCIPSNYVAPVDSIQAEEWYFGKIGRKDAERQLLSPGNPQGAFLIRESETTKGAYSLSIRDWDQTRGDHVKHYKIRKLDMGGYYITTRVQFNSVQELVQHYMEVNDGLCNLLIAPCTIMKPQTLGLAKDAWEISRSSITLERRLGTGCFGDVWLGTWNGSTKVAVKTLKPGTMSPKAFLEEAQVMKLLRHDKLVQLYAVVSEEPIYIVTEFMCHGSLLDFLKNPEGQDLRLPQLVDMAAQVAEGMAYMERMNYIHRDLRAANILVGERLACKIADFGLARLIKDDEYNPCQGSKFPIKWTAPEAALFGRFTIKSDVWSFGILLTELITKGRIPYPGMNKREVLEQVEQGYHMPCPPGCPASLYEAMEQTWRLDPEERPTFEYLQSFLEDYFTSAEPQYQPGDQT

Question: How did the residual activity [1] turn out when CNC(=O)c1ccc2c(c1)ncn2-c1ccc(CC(=O)OC(C)(C)C)cc1 was run?
Answer: 37.6%

Question: And the residual activity [2]?
Answer: 97.4%

Question: And the residual activity [3]?
Answer: 93.1%

Question: And the residual activity [4]?
Answer: 93.9%

Question: What about the residual activity [5] of the same compound?
Answer: 97.3%

Question: What about the residual activity [6] of the same compound?
Answer: 89.9%

Question: And the residual activity [7]?
Answer: 95.7%

Question: And the residual activity [8]?
Answer: 108%

Question: Which residual activity [1] does the source give for Cc1cc(-c2cnc(N)c3c(-c4ccc5scnc5c4)csc23)n(C)n1 here?
Answer: 22.2%

Question: What about the residual activity [2] of the same compound?
Answer: 98.3%

Question: And the residual activity [3]?
Answer: 86%

Question: What about the residual activity [4] of the same compound?
Answer: 89.8%

Question: What about the residual activity [5] of the same compound?
Answer: 104%

Question: What about the residual activity [6] of the same compound?
Answer: 94.8%

Question: And the residual activity [7]?
Answer: 89.8%

Question: What about the residual activity [8] of the same compound?
Answer: 98.2%

Question: How did the residual activity [1] turn out when CC(C)S(=O)(=O)c1ccc2nccc(Nc3ccc4scnc4c3)c2c1 was run?
Answer: 28.5%

Question: What about the residual activity [2] of the same compound?
Answer: 99%

Question: What about the residual activity [3] of the same compound?
Answer: 99.9%

Question: What about the residual activity [4] of the same compound?
Answer: 108%

Question: And the residual activity [5]?
Answer: 98.1%

Question: And the residual activity [6]?
Answer: 88.2%

Question: What about the residual activity [7] of the same compound?
Answer: 102%

Question: What about the residual activity [8] of the same compound?
Answer: 106%
